The target in one assay is T1, IRAK4 (Homo sapiens, UniProt Q9NWZ3).
T1 construct: 293Tcells expressing HiBiT-tagged IRAK4 were then added into 384-well plates
T1 sequence (Q9NWZ3 1-460): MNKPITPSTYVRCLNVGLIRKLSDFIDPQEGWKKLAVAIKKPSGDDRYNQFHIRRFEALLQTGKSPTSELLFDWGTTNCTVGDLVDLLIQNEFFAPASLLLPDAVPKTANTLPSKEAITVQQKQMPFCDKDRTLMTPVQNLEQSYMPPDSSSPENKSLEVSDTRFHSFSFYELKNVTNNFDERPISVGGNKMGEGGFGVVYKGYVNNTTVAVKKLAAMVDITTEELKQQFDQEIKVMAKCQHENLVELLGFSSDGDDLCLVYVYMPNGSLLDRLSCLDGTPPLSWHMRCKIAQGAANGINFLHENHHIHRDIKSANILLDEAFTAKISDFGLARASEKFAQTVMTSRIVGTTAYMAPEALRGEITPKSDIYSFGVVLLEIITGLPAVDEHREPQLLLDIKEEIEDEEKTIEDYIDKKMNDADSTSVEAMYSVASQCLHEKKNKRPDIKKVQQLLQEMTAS
The assay can be described thus: IRAK4 Degradation Assay, HiBiT Method. Conditions: 293T cells expressing HiBiT-tagged IRAK4, 6 hours. The class given is cell-based. In a few lines: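 293T cells with HiBiT knocked in at the C-terminus of endogenous IRAK4, 10,000 per well, treated 6 h at 37 °C with an 11-point half-log series ([…]), in duplicate. Remaining IRAK4 read by Nano-Glo HiBiT lytic luminescence against DMSO-only and media-only controls.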
For orientation: HiBiT is a short tag that completes a luciferase, so light tracks the accessible tagged protein.

The next assay has as its target T2, IKZF1 (Homo sapiens, UniProt Q13422).
T2 construct: endogenously expressing IKZF1 with HiBiT fusion tag via CRISPR
The assay can be described thus: IKZF1 Degradation Assay, HiBiT Method. Conditions: NCIH929 cells expressing HiBiT-tagged IKZF1, 6 hours, top concentration 10 μM. The class given is cell-based. The method, boiled down:
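NCIH929 cells expressing HiBiT-tagged IKZF1, 15000 cells/well in RPMI with 10% FBS and 0.05 mM 2-mercaptoethanol, exposed to compound 6 h at 37 °C. Remaining IKZF1 quantified by lytic HiBiT luminescence, normalised to untreated-cell and medium-only controls.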

T2 sequence (Q96SW2 whole entry partner, the tested form may be a part): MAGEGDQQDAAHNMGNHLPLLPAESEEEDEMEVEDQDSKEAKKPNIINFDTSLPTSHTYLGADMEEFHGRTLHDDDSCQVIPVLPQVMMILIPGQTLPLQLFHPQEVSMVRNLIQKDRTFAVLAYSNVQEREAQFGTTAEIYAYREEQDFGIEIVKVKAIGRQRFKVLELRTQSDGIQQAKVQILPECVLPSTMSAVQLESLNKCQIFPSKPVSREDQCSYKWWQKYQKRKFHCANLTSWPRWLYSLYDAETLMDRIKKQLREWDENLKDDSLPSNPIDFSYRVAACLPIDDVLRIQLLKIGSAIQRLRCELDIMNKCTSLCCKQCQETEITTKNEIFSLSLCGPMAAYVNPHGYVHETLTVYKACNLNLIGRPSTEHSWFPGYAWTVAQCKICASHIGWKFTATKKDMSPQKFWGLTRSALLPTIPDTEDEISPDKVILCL
T2 sequence (Q16531 whole entry partner, the tested form may be a part): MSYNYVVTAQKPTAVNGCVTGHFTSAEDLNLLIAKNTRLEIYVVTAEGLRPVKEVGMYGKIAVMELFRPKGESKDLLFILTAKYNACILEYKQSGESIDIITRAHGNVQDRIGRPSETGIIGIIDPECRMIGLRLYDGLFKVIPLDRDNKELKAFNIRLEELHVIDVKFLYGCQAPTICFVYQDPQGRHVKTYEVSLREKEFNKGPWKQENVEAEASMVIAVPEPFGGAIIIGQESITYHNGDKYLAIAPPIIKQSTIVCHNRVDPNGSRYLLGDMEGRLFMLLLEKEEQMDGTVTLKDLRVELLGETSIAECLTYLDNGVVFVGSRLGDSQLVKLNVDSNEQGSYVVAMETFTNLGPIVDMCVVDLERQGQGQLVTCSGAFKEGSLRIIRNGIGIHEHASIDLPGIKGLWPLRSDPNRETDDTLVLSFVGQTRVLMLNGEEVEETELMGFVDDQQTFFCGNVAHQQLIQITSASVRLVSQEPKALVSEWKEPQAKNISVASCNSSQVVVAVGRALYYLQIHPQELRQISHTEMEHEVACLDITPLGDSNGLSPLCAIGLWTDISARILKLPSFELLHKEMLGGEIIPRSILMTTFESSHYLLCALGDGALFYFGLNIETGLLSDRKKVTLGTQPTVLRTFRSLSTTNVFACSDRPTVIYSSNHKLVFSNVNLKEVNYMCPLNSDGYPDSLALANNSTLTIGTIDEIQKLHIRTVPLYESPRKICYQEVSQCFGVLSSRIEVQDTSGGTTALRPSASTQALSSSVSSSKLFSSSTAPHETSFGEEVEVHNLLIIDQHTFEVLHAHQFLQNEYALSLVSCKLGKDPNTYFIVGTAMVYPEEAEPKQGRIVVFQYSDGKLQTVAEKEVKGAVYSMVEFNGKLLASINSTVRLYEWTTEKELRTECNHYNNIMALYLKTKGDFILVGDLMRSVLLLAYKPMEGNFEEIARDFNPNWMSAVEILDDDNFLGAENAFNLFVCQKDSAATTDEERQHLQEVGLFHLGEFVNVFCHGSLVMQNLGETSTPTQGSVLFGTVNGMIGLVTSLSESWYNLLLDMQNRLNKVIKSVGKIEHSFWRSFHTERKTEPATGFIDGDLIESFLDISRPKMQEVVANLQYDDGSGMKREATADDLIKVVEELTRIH
T2 sequence (Q13422 whole entry, the tested form may be a part): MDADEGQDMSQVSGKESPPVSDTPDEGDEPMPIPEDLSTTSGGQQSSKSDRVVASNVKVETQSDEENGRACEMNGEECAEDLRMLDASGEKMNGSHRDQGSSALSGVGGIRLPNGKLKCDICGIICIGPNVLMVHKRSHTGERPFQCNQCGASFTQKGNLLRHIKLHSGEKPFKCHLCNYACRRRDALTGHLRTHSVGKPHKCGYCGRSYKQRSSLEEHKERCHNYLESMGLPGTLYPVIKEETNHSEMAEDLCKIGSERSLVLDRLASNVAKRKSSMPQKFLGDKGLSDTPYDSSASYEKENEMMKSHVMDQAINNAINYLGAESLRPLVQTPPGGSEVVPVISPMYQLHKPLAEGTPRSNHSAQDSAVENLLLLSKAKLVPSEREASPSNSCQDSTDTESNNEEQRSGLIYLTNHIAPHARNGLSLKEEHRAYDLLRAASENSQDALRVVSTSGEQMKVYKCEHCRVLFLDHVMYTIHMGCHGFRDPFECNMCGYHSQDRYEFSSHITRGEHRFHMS

What is called DC50 is the midpoint of the concentration-degradation curve. Read a high DC50 as a less potent degrader. With `CC(C)Oc1cc2nn([C@H]3CC[C@H](CN4CC[C@@H](c5ccc6c(C7CCC(=O)NC7=O)nn(C)c6c5)[C@H](O)C4)CC3)cc2cc1C(=O)Nc1cccn([C@H]2C[C@H]2F)c1=O` (stereo partly drawn) [Example 129, 2-((1S,4S)-4-(((3S,4S)-4-(3-(2,6-dioxopiperidin-3-yl)-1-methyl-1H-indazol-6-yl)-3-hydroxypiperidin-1-yl)methyl)cyclohexyl)-N-(1-((1S,2R)-2-fluorocyclopropyl)-2-oxo-1,2-dihydropyridin-3-yl)-6-isopropoxy-2H-indazole-5-carboxamide], the half-maximal degradation concentration (DC50) at IRAK4 is under 10 nM; at IKZF1, over 10000 nM.
As to `CC(C)Oc1cc2nc([C@H]3CC[C@H](CN4CCC(c5cc(F)c(C6CCC(=O)NC6=O)cc5F)C(F)(F)C4)CC3)cn2cc1C(=O)Nc1cnn2cccnc12` (some centres unmarked) [Example 53, 2-[4-[[4-[4-(2,6-dioxo-3-piperidyl)-2,5-difluoro-phenyl]-3,3-difluoro-1-piperidyl]methyl]cyclohexyl]-7-isopropoxy-N-pyrazolo[1,5-a]pyrimidin-3-yl-imidazo[1,2-a]pyridine-6-carboxamide], the DC50 at IRAK4 was 10 to 100 nM; on IKZF1, over 10000 nM.
For the compound `CC(C)Oc1cc2nn([C@H]3CC[C@H](CNC4CCN(c5ncc(C6CCC(=O)NC6=O)cc5F)CC4)CC3)cc2cc1C(=O)Nc1cccn(C2CC2)c1=O` (some centres unmarked) [Example 125, N-(1-cyclopropyl-2-oxo-1,2-dihydropyridin-3-yl)-2-((1r,4r)-4-(((1-(5-(2,6-dioxopiperidin-3-yl)-3-fluoropyridin-2-yl)piperidin-4-yl)amino)methyl)cyclohexyl)-6-isopropoxy-2H-indazole-5-carboxamide], the DC50 is under 10 nM on IRAK4 and over 10000 nM on IKZF1.
For `CC(C)Oc1cc2nn([C@H]3CC[C@H](CN4CC5(CCN(c6ncc(C7CCC(=O)NC7=O)cc6F)CC5)C4)CC3)cc2cc1C(=O)Nc1cccn([C@H]2C[C@H]2F)c1=O` (stereo partly drawn) [Example 121, 2-((1r,4S)-4-((7-(5-(2,6-dioxopiperidin-3-yl)-3-fluoropyridin-2-yl)-2,7-diazaspiro[3.5]nonan-2-yl)methyl)cyclohexyl)-N-(1-((1S,2R)-2-fluorocyclopropyl)-2-oxo-1,2-dihydropyridin-3-yl)-6-isopropoxy-2H-indazole-5-carboxamide] the same measures were under 10 nM and over 10000 nM.
Taken in the same sequence, the figures for `CC(C)Oc1cc2nn(C3CCN(C(=O)CC4(O)CCN(c5cnc6c(c5)n(C)c(=O)n6C5CCC(=O)NC5=O)CC4)CC3)cc2cc1C(=O)Nc1cccn([C@H]2C[C@H]2F)c1=O` (stereo partly drawn) [Example 153, 2-(1-(2-(1-(3-(2,6-dioxopiperidin-3-yl)-1-methyl-2-oxo-2,3-dihydro-1H-imidazo[4,5-b]pyridin-6-yl)-4-hydroxypiperidin-4-yl)acetyl)piperidin-4-yl)-N-(1-((1S,2R)-2-fluorocyclopropyl)-2-oxo-1,2-dihydropyridin-3-yl)-6-isopropoxy-2H-indazole-5-carboxamide] were 10 to 100 nM and over 10000 nM.
Taken in the same sequence, the figures for `CC(C)Oc1cc2nc(C3CCN(C(=O)CC4CCN(c5ncc(NC6CCC(=O)NC6=O)cc5F)CC4)CC3)cn2cc1C(=O)Nc1cccc(C(F)F)n1` (centres unmarked) [Example 81, N-[6-(difluoromethyl)-2-pyridyl]-2-[1-[2-[1-[5-[(2,6-dioxo-3-piperidyl)amino]-3-fluoro-2-pyridyl]-4-piperidyl]acetyl]-4-piperidyl]-7-isopropoxy-imidazo[1,2-a]pyridine-6-carboxamide] were 10 to 100 nM and over 10000 nM.
For the compound `CC(C)Oc1cc2nc(C3CCN(C(=O)CC4CCN(c5ncc(C6CCC(=O)NC6=O)cc5F)CC4)CC3)cn2cc1C(=O)Nc1cnn2cccnc12` (centres unmarked) [Example 162, 2-(1-(2-(1-(5-(2,6-dioxopiperidin-3-yl)-3-fluoropyridin-2-yl)piperidin-4-yl)acetyl)piperidin-4-yl)-7-isopropoxy-N-(pyrazolo[1,5-a]pyrimidin-3-yl)imidazo[1,2-a]pyridine-6-carboxamide], the DC50 at IRAK4 is 10 to 100 nM; on IKZF1 it was over 10000 nM.
Consider `CC(C)Oc1cc2nc(C3CCN(C(=O)CN4CCC(c5ccc(C6CCC(=O)NC6=O)cc5)CC4)CC3)cn2cc1C(=O)Nc1cccc(C(F)F)n1` (centres unmarked) [Example 68, N-[6-(difluoromethyl)-2-pyridyl]-2-[1-[2-[4-[4-(2,6-dioxo-3-piperidyl)phenyl]-1-piperidyl]acetyl]-4-piperidyl]-7-isopropoxy-imidazo[1,2-a]pyridine-6-carboxamide], for which the half-maximal degradation concentration (DC50) is 10 to 100 nM at IRAK4 and over 10000 nM at IKZF1.
For `CC(C)Oc1cc2nc(C3CCN(C(=O)CC4(O)CCN(c5cc(F)c(NC6CCC(=O)NC6=O)cc5F)CC4)CC3)cn2cc1C(=O)Nc1cccc(C(F)F)n1` (centres unmarked) [Example 70, N-[6-(difluoromethyl)-2-pyridyl]-2-[1-[2-[1-[4-[(2,6-dioxo-3-piperidyl)amino]-2,5-difluoro-phenyl]-4-hydroxy-4-piperidyl]acetyl]-4-piperidyl]-7-isopropoxy-imidazo[1,2-a]pyridine-6-carboxamide] the same measures were under 10 nM and over 10000 nM.
Taken in the same sequence, the figures for `CC(C)Oc1cc2nc([C@H]3CC[C@H](CN4CCC(c5ccc6c(c5)n(C)c(=O)n6C5CCC(=O)NC5=O)C(F)(F)C4)CC3)cn2cc1C(=O)Nc1cnn2cccnc12` (some centres unmarked) [Example 49, 2-[4-[[4-[1-(2,6-dioxo-3-piperidyl)-3-methyl-2-oxo-benzimidazol-5-yl]-3,3-difluoro-1-piperidyl]methyl]cyclohexyl]-7-isopropoxy-N-pyrazolo[1,5-a]pyrimidin-3-yl-imidazo[1,2-a]pyridine-6-carboxamide] were under 10 nM and over 10000 nM.

The record behind these values is patent publication US20240343733A1, “COMPOUNDS FOR TARGETING DEGRADATION OF IRAK4 PROTEINS” (BIOGEN MA INC., priority 2021, published 2024).
